Assay results reported in PMC11277476, “Synthesis and Biological Evaluation of Novel 2-Aroyl Benzofuran-Based Hydroxamic Acids as Antimicrotubule Agents” (International Journal of Molecular Sciences, 2024).

Assays:
human recombinant HDAC6 = biological target: T1, human recombinant HDAC6 (Homo sapiens, UniProt Q9UBN7); assay: HDAC isoform inhibition, fluorogenic substrate, HDAC6; type: biochemical; settings: mean ± SE, read-out: IC50 (µM) hHDAC6
T1 construct: purchased BPS Bioscience 50056
T1 sequence (Q9UBN7 1-1215): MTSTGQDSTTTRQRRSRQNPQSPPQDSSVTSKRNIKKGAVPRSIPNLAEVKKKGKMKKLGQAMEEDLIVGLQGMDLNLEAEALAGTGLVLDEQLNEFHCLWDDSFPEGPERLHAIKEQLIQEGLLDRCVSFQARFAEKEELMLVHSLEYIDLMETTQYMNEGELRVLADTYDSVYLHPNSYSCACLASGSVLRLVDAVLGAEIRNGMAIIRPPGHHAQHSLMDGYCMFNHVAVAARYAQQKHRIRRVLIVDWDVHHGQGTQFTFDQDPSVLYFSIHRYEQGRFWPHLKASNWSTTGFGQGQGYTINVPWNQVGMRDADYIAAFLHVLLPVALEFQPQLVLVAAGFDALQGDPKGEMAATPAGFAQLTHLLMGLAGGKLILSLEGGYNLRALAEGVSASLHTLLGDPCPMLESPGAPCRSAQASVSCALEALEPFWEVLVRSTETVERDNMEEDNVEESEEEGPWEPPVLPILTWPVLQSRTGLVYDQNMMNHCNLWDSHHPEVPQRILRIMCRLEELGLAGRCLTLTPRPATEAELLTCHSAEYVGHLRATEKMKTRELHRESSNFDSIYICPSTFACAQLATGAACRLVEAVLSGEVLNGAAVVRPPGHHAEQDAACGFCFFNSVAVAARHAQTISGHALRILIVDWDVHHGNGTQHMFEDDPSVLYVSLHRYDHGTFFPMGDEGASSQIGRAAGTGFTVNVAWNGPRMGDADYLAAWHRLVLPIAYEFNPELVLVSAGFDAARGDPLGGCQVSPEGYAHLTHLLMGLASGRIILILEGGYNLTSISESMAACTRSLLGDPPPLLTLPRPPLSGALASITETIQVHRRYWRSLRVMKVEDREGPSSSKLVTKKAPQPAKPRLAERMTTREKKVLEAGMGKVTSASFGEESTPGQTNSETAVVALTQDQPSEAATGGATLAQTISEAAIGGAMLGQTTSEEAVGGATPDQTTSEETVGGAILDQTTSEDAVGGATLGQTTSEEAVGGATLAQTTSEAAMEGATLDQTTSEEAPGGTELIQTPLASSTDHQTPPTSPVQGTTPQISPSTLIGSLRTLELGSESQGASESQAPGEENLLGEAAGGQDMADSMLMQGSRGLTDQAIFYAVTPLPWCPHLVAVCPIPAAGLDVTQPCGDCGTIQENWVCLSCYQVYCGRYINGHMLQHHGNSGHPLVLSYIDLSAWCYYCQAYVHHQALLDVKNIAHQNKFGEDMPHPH
Protocol: (§1) Further experiments were also carried out to evaluate the inhibitory activities of test compounds on selected HDAC isoforms. […] Following an incubation of 15 min at RT, fluorescence was measured in an EnSight multimodal plate reader (PerkinElmer, Boston, MA, USA) with an excitation wavelength of 360 nm and an emission wavelength of 450 nm.

HT-29 cells [1] = assay: Cell cycle analysis (PI, flow cytometry); type: cell-based, human; settings: 250 nM for 24 h (figure legend)
Protocol: HT29 cells were treated with the indicated compounds for 24 h and then harvested and fixed in 70% ice-cold ethanol for 24 h. The cells were next treated with a 0.1% v/v solution of Triton X-100 in phosphate buffered saline (PBS) containing 10 μg/mL RNAse A and 20 μg/mL PI. The cells were incubated at room temperature for 30 min and then analyzed on a BD FACS Celesta^TM Flow Cytometer (BD Bioscience, Franklin Lakes, NJ, USA) in the FL3 channel. DNA histograms were analyzed using FlowJo_v10.7.1 software (BD Bioscience, Franklin Lakes, NJ, USA).

[2] = tested on: tubulin (colchicine site); assay: Inhibition of [3H]colchicine binding to tubulin; set-up: species or system bovine; settings: tubulin 0.5 µM, [3H]colchicine 5 µM, tested compound 5 µM
Protocol: (§2) Bovine brain tubulin was purified as described previously. To evaluate the effects of the compounds on tubulin assembly in vitro [77], varying concentrations were preincubated with 10 μM tubulin in 0.8 M monosodium glutamate (pH 6.6) at 30 °C, and the reaction mixtures were then cooled to 0 °C. After addition of GTP, the mixtures were transferred to 0 °C cuvettes in Beckman Coulter (Brea, CA, USA) DU-7400/DU-7500 recording spectrophotometers equipped with electronic temperature controllers and were warmed to 30 °C, and the assembly of tubulin was observed turbidimetrically. […] Inhibition of colchicine binding to tubulin was measured as described before, except that the reaction mixtures contained 0.5 μM tubulin and 5 μM each of [^3H]colchicine and test compound. Only one DEAE-cellulose filter was used per sample, and filtration was via gravity.

bovine brain tubulin = assay: Inhibition of tubulin polymerization (turbidimetric); type: biochemical; settings: tubulin at 10 μM; 20 min incubation at 30 °C; read-out: Tubulin Assembly IC50 ± SD
Protocol: as §2

[3] = tested on: acetylated histone H3 (Ac-H3K9) in HT-29 cells; assay: Western blot of acetylated histone H3 (Ac-H3K9) in HT-29 cells; type: cell-based, human; settings: 10 µM, 6 h
Protocol: HT-29 cells were treated with selected compounds for 6 h at 10 µM, lysed, and then processed as previously described.
Antibodies directed against total histone H3 and its acetylated form (Ac-H3K9) were purchased from Cell Signaling Technology, Danvers, Massachusetts, while anti-vinculin antibody was purchased from Santa Cruz Biotechnology. Membranes were visualized using ECL select (GE Healthcare), and images were acquired using the iBright FL1500 Imaging System (Thermo Fisher Scientific, Waltham, MA, USA). Anti-vinculin (1:25,000, Santa Cruz Biotechnology, Dallas, TX, USA) was used as loading controls.

HT-29 cells [4] = assay: Annexin V-PI flow cytometric analysis of apoptosis, HT-29; type: cell-based, human; settings: 96 h
Protocol: The quantification of apoptosis induced by the test compounds was carried out with flow cytometric analysis using the Annexin-V Fluos kit (Roche Diagnostics, Milan, Italy) following the manufacturer’s instructions. Cancer cells treated with the test compounds for the indicated time points and concentrations were then labeled with annexin V/FITC and PI and analyzed with BD FACS Celesta^TM Flow Cytometer (BD Bioscience, Franklin Lakes, NJ, USA) using the FL1 and FL3 channel, respectively, and FlowJo_v10.7.1 software.

MDA-MB-231 cells = assay: In vitro growth inhibition (resazurin, 72 h), MDA-MB-231; type: cell-based; settings: Homo sapiens, mean ± SE
HeLa cells = assay: In vitro growth inhibition (resazurin, 72 h), HeLa; type: cell-based; settings: Homo sapiens, concentration inhibiting tumor cell proliferation by 50%, mean ± SE
[5] = tested on: human peripheral blood mononuclear cells (PBMC), not stimulated with PHA; assay: Cytotoxicity in resting PBMC (resazurin, 72 h); type: cell-based; settings: mean ± SEM
From the text: (§3) Peripheral blood mononuclear cells (PBMC), obtained from human peripheral blood (leucocyte-rich plasma-buffy coats) of healthy volunteers using a Lymphoprep^TM (Serumwerk Bernburg AG) gradient, were used for the evaluation of the cytotoxic potential of compounds in normal human cells.
(§4) After extensive washing with saline solution (Hank’s Buffer Saline Solution, BioConcept, Allschwil, Switzerland), quiescent PBMCs were resuspended (1.0 × 10^6 cells/mL) in RPMI-1640 medium supplemented with 10% FBS. To evaluate cytotoxicity in proliferating PBMCs cultures, cells were resuspended at a concentration of 5 × 10^5 cells/mL in a growth medium containing […] of PHA (Irvine Scientific, Santa Ana, CA, USA). The same cellular density was utilized for resting PBMC cultures, without the addition of PHA. The tested compounds were added at different concentrations, and after a 72 h incubation, cell viability was determined using the resazurin test as described above.

MCF-7 cells = assay: In vitro growth inhibition (resazurin, 72 h), MCF-7; type: cell-based; settings: Homo sapiens, MCF7, mean ± SE
HT-29 cells [6] = assay: In vitro growth inhibition (resazurin, 72 h), HT-29; type: cell-based; settings: Homo sapiens, mean ± SE
[7] = tested on: human peripheral blood mononuclear cells (PBMC) stimulated with PHA; assay: Cytotoxicity in PHA-stimulated PBMC (resazurin, 72 h); type: cell-based; settings: mean ± SEM
From the text: as §3, §4

A549 cells = assay: In vitro growth inhibition (resazurin, 72 h), A549; type: cell-based; settings: Homo sapiens, mean ± SE
human recombinant HDAC10 = biological target: T2, human recombinant HDAC10 (Homo sapiens, UniProt Q969S8); assay: HDAC isoform inhibition, fluorogenic substrate, HDAC10; type: biochemical; settings: mean ± SE, read-out: IC50 (µM) hHDAC10
T2 construct: purchased BPS Bioscience 50060
T2 sequence (Q969S8 1-669): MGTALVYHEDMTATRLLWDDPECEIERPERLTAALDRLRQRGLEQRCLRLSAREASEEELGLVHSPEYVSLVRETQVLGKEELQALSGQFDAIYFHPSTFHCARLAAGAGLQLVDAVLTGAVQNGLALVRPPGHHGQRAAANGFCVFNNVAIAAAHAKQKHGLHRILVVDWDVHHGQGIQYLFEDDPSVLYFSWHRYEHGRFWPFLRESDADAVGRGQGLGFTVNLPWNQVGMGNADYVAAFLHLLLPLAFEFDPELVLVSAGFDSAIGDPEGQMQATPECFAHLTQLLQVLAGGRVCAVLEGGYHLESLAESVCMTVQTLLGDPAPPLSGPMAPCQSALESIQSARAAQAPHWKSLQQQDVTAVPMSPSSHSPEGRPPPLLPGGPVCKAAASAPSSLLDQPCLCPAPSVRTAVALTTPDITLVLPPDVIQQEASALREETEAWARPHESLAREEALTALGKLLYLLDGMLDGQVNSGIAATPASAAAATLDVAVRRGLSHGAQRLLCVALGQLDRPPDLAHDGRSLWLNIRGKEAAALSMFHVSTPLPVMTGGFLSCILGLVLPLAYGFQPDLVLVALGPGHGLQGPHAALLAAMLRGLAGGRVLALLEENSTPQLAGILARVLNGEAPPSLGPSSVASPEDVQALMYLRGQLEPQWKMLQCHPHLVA
Protocol: as §1

human recombinant HDAC8 = biological target: T3, human recombinant HDAC8 (Homo sapiens, UniProt Q9BY41); assay: HDAC isoform inhibition, fluorogenic substrate, HDAC8; type: biochemical; settings: mean ± SE, read-out: IC50 (µM) hHDAC8
T3 construct: purchased BPS Bioscience 50008
T3 sequence (Q9BY41 1-377): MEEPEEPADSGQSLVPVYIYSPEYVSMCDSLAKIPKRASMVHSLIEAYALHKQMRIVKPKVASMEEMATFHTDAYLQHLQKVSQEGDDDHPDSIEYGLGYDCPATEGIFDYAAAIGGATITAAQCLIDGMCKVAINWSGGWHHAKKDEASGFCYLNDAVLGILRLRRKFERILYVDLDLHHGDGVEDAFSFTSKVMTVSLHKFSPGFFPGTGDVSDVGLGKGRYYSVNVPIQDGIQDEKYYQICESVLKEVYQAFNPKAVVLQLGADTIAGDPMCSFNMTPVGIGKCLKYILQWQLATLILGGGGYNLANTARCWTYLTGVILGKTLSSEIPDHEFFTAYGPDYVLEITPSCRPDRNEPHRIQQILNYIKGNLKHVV
Protocol: as §1

[8] = tested on: panel of five human cancer cell lines (HeLa, MDA-MB-231, A549, HT-29, MCF-7); assay: In vitro growth inhibition, range over the panel of five cancer cell lines; settings: read-out: IC50 values, range over the cancer cell line panel
Protocol: All the cell lines were purchased from the American Type Culture Collection (ATCC, Manassas, VA, USA). Drug stock solutions were prepared for each compound by dissolving them in DMSO at 10 mM.
Cancer cells were seeded in tissue treated, flat bottom, 384-well plates (Corning, Corning, NY, USA) according to their optimal density, in 27 μL of complete medium per well, using a Microlab STAR 96-CORE liquid handling system (Hamilton Bonaduz, Bonaduz, Switzerland) as described previously [75]. Each compound was tested in a 6-points 2-fold dose–response curve, and each dose was tested in duplicate within each plate, in three independent experiments. The final concentration of DMSO in the wells never exceeded 0.1%, which was the maximum concentration.
Only plates with acceptable Z-prime quality metrics (Z′ > 0.6) were further analyzed for the drug screening. Raw data were normalized according to the following equation: cell viability (%) = (x − POS)/(NEG − POS) × 100, where x is the relative fluorescence units (RFU) collected from each single well, NEG is the mean of intraplate negative controls (DMSO, corresponding to 100% cell viability), and POS is the mean of intraplate positive controls (Bortezomib 1 μΜ, equal to 0% cell viability).

human recombinant HDAC1 = biological target: T4, human recombinant HDAC1 (Homo sapiens, UniProt Q13547); assay: HDAC isoform inhibition, fluorogenic substrate, HDAC1; type: biochemical; settings: mean ± SE, read-out: IC50 (µM) hHDAC1
T4 construct: purchased BPS Bioscience 50051
T4 sequence (Q13547 whole entry, canonical isoform): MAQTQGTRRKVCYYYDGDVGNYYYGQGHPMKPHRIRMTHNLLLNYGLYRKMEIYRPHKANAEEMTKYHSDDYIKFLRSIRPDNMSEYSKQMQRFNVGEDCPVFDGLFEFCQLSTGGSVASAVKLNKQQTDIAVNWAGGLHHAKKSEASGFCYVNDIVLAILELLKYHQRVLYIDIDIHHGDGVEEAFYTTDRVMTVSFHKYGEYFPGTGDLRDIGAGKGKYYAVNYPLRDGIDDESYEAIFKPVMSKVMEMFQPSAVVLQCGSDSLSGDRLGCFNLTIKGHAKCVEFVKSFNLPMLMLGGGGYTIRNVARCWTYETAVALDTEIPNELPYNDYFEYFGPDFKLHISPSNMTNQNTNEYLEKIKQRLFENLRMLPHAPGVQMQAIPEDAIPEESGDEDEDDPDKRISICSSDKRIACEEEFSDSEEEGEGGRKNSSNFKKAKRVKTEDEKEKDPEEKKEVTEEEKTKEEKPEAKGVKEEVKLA
Protocol: as §1

| Structure (SMILES) | IC50 (human recombinant HDAC6) [µM] | Percentage of HT-29 cells in G1 phase (HT-29 cells [1]) [%] | Percentage of HT-29 cells in G2/M phase (HT-29 cells [1]) [%] | Percentage of HT-29 cells in S phase (HT-29 cells [1]) [%] | Colchicine Binding % Inhibition ± SD [2] [%] | IC50 (bovine brain tubulin) [nM] | acetylated histone H3 (Ac-H3K9) level, Western blot [3] | induction of apoptosis / cell death (annexin V/PI), in words (HT-29 cells [4]) | IC50 (MDA-MB-231 cells) [nM] | IC50 (HeLa cells) [nM] | GI50 [5] [µM] | IC50 (MCF-7 cells) [nM] | IC50 (HT-29 cells [6]) [nM] | GI50 [7] [µM] | IC50 (A549 cells) [nM] | IC50 (human recombinant HDAC10) [µM] | melting point [°C] | IC50 (human recombinant HDAC8) [µM] | IC50 [8] [nM] | IC50 (human recombinant HDAC1) [µM] |
| --- | --- | --- | --- | --- | --- | --- | --- | --- | --- | --- | --- | --- | --- | --- | --- | --- | --- | --- | --- | --- |
| COc1cc2oc(C(=O)c3ccccc3OC)c(C)c2cc1/C=C/C(=O)NO [Compound 6f, (E)-N-Hydroxy-3-(6-methoxy-2-(2-methoxybenzoyl)-3-methylbenzofuran-5-yl)acrylamide] | 6.12 ± 0.41 | 6.12 | 87.54 | 6.34 | 76 ± 2 | 1200 ± 100 | significantly increased acetylated histone H3 (Ac-H3K9) | able to induce cell apoptosis | 41.9 ± 2.33 | 3.9 ± 0.01 | > 10 | 24 ± 8 | 75.3 ± 3.09 | 0.51 ± 0.1 | 168 ± 5.31 |  |  |  |  |  |
| COc1cc2oc(C(=O)c3cc(OC)c(OC)c(OC)c3)c(C)c2cc1C#CC(=O)NO [Compound 11a, N-Hydroxy-3-[6-methoxy-3-methyl-2-(3,4,5-trimethoxybenzoyl)-1-benzofuran-5-yl] prop-2-ynamide] | > 30 |  |  |  | 69 ± 0.1 | 490 ± 100 |  |  | 16.1 ± 0.01 | 0.4 ± 0.04 |  | 9.5 ± 0.7 | 6.6 ± 0.96 |  | 18.7 ± 0.72 | > 30 | 268 to 270 | > 30 | 0.4 to 19 | 14.1 ± 1 |
